This is an account of results in BindingDB's records for doi:10.1073/pnas.83.22.8784 (The Oregon Health Sciences University, 1986).

Assay [1] has as its target T1, Alpha-2C adrenergic receptor (Rattus norvegicus, UniProt P22086).
T1 sequence (P22086 whole entry): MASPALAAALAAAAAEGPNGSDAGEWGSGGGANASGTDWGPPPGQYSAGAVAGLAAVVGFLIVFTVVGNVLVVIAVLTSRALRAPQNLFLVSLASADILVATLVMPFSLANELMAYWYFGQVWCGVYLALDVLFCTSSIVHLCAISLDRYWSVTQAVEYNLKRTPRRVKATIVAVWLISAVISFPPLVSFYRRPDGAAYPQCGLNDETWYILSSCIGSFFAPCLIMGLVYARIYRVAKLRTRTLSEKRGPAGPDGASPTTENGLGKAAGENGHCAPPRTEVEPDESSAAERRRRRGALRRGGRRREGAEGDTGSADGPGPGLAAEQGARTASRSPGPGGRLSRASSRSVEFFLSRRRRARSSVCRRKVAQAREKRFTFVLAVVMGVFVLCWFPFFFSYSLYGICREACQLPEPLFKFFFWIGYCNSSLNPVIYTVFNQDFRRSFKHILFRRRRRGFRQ

For assay [2], the target named is T2, Alpha-1A adrenergic receptor (Rattus norvegicus, UniProt P43140).
T2 sequence (P43140 whole entry): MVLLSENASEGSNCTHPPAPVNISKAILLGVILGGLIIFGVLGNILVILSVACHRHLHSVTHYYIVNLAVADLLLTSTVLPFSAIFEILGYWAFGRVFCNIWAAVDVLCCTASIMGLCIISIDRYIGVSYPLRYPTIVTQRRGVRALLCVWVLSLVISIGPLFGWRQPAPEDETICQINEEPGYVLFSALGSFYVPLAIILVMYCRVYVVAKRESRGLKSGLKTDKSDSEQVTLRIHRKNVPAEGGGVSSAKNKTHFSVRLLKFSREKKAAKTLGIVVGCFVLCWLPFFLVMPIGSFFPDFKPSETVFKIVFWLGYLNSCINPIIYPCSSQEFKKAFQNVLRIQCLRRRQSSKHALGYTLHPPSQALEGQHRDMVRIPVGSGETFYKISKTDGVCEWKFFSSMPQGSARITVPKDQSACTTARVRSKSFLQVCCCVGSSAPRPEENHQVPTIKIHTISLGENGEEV

For assay [3], the target named is 5-hydroxytryptamine receptor 2A (Rattus norvegicus, UniProt P14842).

pKi: −log10 of the molar value.

Chain of 5-hydroxytryptamine receptor 2A (P14842 whole entry): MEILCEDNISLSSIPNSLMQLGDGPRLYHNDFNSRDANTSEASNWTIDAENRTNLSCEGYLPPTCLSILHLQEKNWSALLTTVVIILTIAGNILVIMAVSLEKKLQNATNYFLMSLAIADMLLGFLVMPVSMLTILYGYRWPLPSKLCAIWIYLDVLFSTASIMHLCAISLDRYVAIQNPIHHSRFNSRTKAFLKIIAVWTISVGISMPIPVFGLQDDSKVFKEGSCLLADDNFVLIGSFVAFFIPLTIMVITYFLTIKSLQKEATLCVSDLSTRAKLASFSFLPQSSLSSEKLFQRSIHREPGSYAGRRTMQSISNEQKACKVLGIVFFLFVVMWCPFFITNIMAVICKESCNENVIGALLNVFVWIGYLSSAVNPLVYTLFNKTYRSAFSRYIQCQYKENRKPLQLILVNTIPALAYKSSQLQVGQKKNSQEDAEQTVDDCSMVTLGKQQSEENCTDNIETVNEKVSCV

Turning to `O=C(c1ccc(F)cc1)C1CCN(CCn2c(=O)[nH]c3ccccc3c2=O)CC1` [3-(2-{4-[(4-fluorophenyl)carbonyl]piperidin-1-yl}ethyl)-1,2,3,4-tetrahydroquinazoline-2,4-dione], the negative logarithm of the Ki (pKi) in assay [1] was 6.53; in assay [2], 7.14.

In the case of `NC(N)=NN=Cc1c(Cl)cccc1Cl` [Guanabenz], the negative-log Ki (pKi) in assay [1] is less than 5.00; in assay [3], 6.70.

Regarding `Cn1c(=O)c2c(ncn2CCN2CCC(C(=O)c3ccc(F)cc3)CC2)n(C)c1=O` [NSC_71255], the results for the pKi in assay [1], in assay [2] and in assay [3] were 6.38, 6.92 and 8.35, respectively.

`Cc1nc2sccn2c(=O)c1CCN1CCC(=C(c2ccc(F)cc2)c2ccc(F)cc2)CC1`: the results for the pKi in assay [1] and in assay [2] were 6.20 and 6.72, respectively.

As to `O=C(c1ccc(F)cc1)C1CCN(CCCCn2c(=O)[nH]c3ccccc3c2=O)CC1` [CAS_87051-46-5], the results for the pKi in assay [1] and in assay [2] were 7.12 and 8.73, respectively.

For `Cc1nc2ccccn2c(=O)c1CCN1CCC(=C(c2ccc(F)cc2)c2ccc(F)cc2)CC1` [NSC_159037], the negative-log Ki (pKi) in assay [1] is 6.55; in assay [2], 6.59; in assay [3], 8.22.

As a reminder, the pKi is the Ki on a negative log10 scale, so that one unit is a factor of ten.
